In data set [1] the test system is Mycosphaerella graminicola (Septoria tritici). The data set is described as follows: microbe, parasite or virus in culture. The class given is cell-based. As to conditions: Zymoseptoria tritici, read-out: control of Mycosphaerella graminicola.
The test system of data set [2] is Magnaporthe grisea (Pyricularia oryzae). The data set is described as follows: microbe, parasite or virus in culture. The class given is cell-based. As to conditions: read-out: control of Magnaporthe grisea.
Data set [3] deals with Monographella nivalis (Microdochium nivale). The experiment in a line: Monographella Nivalis (Microdochium Nivale)/Liquid Culture (Foot Rot Cereals). The settings on record: liquid culture, growth inhibition photometrically 4-5 days after application, compared to untreated control. The class given is cell-based. How it is done: Monographella Nivalis (Microdochium Nivale)/Liquid Culture (Foot Rot Cereals)
(§1) Conidia of the fungus from cryogenic storage are directly mixed into nutrient broth (PDB potato dextrose broth). After placing a (DMSO) solution of test compound into a microtiter plate (96-well format), the nutrient broth containing the fungal spores is added. The test plates are incubated at 24° C. and the inhibition of growth is determined photometrically 4-5 days after application.

The next data set has as its system Sclerotinia sclerotiorum. The experiment in a line: Sclerotinia sclerotiorum/Liquid Culture (Cottony Rot). The class given is cell-based. As to conditions: liquid culture, growth inhibition photometrically 3-4 days after application, compared to untreated control. How it is done:
Sclerotinia sclerotiorum/Liquid Culture (Cottony Rot)
Mycelia fragments of a newly grown liquid culture of the fungus are directly mixed into nutrient broth (Vogels broth). After placing a (DMSO) solution of test compound into a microtiter plate (96-well format) the nutrient broth containing the fungal material is added. The test plates are incubated at 24° C. and the inhibition of growth is determined photometrically 3-4 days after application.

The test system of data set [4] is Botryotinia fuckeliana (Botrytis cinerea). The data set is described as follows: Botryotinia fuckeliana (Botrytis cinerea)/Liquid Culture (Gray Mould). The class given is cell-based. The settings on record: liquid culture, growth inhibition photometrically 3-4 days after application, compared to untreated control. Here is the method:
Biological Examples Botryotinia fuckeliana (Botrytis cinerea)/Liquid Culture (Gray Mould)
Conidia of the fungus from cryogenic storage are directly mixed into nutrient broth (Vogels broth). After placing a (DMSO) solution of test compound into a microtiter plate (96-well format), the nutrient broth containing the fungal spores is added. The test plates are incubated at 24° C. and the inhibition of growth is determined photometrically 3-4 days after application.

The next data set relates to Fusarium culmorum. The experiment in a line: microbe, parasite or virus in culture. It counts as cell-based. The settings on record: read-out: control of Fusarium culmorum.
The test system of another data set is Gaeumannomyces graminis. The experiment in a line: Gaeumannomyces Graminis/Liquid Culture (Take-all of Cereals). The class given is cell-based. The settings on record: liquid culture, growth inhibition photometrically 4-5 days after application, compared to untreated control. How it is done:
Gaeumannomyces Graminis/Liquid Culture (Take-all of Cereals)
Mycelial fragments of the fungus from cryogenic storage were directly mixed into nutrient broth (PDB potato dextrose broth). After placing a (DMSO) solution of test compound into a microtiter plate (96-well format), the nutrient broth containing the fungal spores is added. The test plates are incubated at 24° C. and the inhibition of growth is determined photometrically 4-5 days after application.

Data set [5] has as its system Glomerella lagenarium (Colletotrichum lagenarium). The experiment in a line: Glomerella Lagenarium (Colletotrichum Lagenarium)/Liquid Culture (Anthracnose). The class given is cell-based. The settings on record: Colletotrichum orbiculare, liquid culture, growth inhibition photometrically 3-4 days after application, compared to untreated control. Here is the method:
Glomerella Lagenarium (Colletotrichum Lagenarium)/Liquid Culture (Anthracnose)
Conidia of the fungus from cryogenic storage are directly mixed into nutrient broth (PDB potato dextrose broth). After placing a (DMSO) solution of test compound into a microtiter plate (96-well format), the nutrient broth containing the fungal spores is added. The test plates are incubated at 24° C. and the inhibition of growth is measured photometrically 3-4 days after application.

For data set [6], the system named is Mycosphaerella arachidis (Cercospora arachidicola). The data set is described as follows: Mycosphaerella arachidis (Cercospora arachidicola)/Liquid Culture (Early Leaf Spot). It counts as cell-based. The settings on record: 20 ppm; liquid culture, growth inhibition photometrically 4-5 days after application; compared to untreated control. Here is the method: Mycosphaerella arachidis (Cercospora arachidicola)/Liquid Culture (Early Leaf Spot)
as §1

The values that follow come from patent publication US10329272B2 (priority 2015, dated 2019).

`Cn1nc2c(Br)cccc2c1C1=NC(C)(C)Cc2ccccc21` [Compound E-5, 1-(7-bromo-2-methyl-indazol-3-yl)-3,3-dimethyl-4H-isoquinoline] displayed a melting point of 161 to 162 °C. In addition, the inhibition of growth at 20 ppm in data set [1] was at least 80%. Further, in data set [2], the inhibition of growth at 20 ppm is at least 80%. The same compound yielded an inhibition of growth at 20 ppm in [3] of at least 80%. In the data set with Sclerotinia sclerotiorum, this compound came in with an inhibition of growth at 20 ppm of at least 80%. In data set [4], this compound had an inhibition of growth at 20 ppm of at least 80%.

`Cc1ccc2c(C3=NC(C)(C)C(C)(C)c4c(F)cccc43)n(C)nc2c1` [Compound E-28, 1-(2,6-dimethylindazol-3-yl)-5-fluoro-3,3,4,4-tetramethyl-isoquinoline] had a melting point of 137 to 138 °C. Also, the inhibition of growth at 20 ppm in data set [1] is at least 80%. Further, the inhibition of growth at 20 ppm with Fusarium culmorum was at least 80%. In the data set with Gaeumannomyces graminis, the inhibition of growth at 20 ppm was at least 80%. Also, the inhibition of growth at 20 ppm in data set [2] is at least 80%. This compound came in with an inhibition of growth at 20 ppm in [3] of at least 80%. This compound gave an inhibition of growth at 20 ppm in the data set with Sclerotinia sclerotiorum of at least 80%. Also, in data set [4], the inhibition of growth at 20 ppm is at least 80%. This compound registered an inhibition of growth at 20 ppm in [5] of at least 80%.

As to `Cc1ccc2c(C3=NC(C)(C)C(C)(C)c4c(F)cccc43)n(C)nc2c1C` [Compound E-30, 5-fluoro-3,3,4,4-tetramethyl-1-(2,6,7-trimethylindazol-3-yl)isoquinoline], the melting point was 111 to 113 °C. The inhibition of growth at 20 ppm in data set [1] is at least 80%. For the same compound, the inhibition of growth at 20 ppm in data set [2] was at least 80%. In data set [3], this compound showed an inhibition of growth at 20 ppm of at least 80%. In addition, in the data set with Sclerotinia sclerotiorum, the inhibition of growth at 20 ppm was at least 80%. In data set [4], this compound gave an inhibition of growth at 20 ppm of at least 80%. In [5], the inhibition of growth at 20 ppm is at least 80%.

Compound `Cc1ccc2c(C3=NC(C)(C)C(C)(C)c4c(F)cccc43)n(C)nc2c1Cl` [Compound E-27, 1-(7-chloro-2,6-dimethyl-indazol-3-yl)-5-fluoro-3,3,4,4-tetramethyl-isoquinoline] showed a melting point of 113 to 116 °C. Also, the inhibition of growth at 20 ppm in data set [1] is at least 80%. The inhibition of growth at 20 ppm with Fusarium culmorum is at least 80%. The compound further gave an inhibition of growth at 20 ppm in the data set with Gaeumannomyces graminis of at least 80%. The inhibition of growth at 20 ppm in [2] was at least 80%. Besides, in data set [3], the inhibition of growth at 20 ppm is at least 80%. For the same compound, the inhibition of growth at 20 ppm in the data set on Sclerotinia sclerotiorum was at least 80%. In data set [4], this compound had an inhibition of growth at 20 ppm of at least 80%. In data set [5], this compound had an inhibition of growth at 20 ppm of at least 80%.

Regarding `Cn1nc2c(Cl)cccc2c1C1=NC(C)(C)C(C)(C)c2c(F)cccc21` [Compound E-22, 1-(7-chloro-2-methyl-indazol-3-yl)-5-fluoro-3,3,4,4-tetramethyl-isoquinoline], the melting point is 45 to 47 °C. The inhibition of growth at 20 ppm in [1] was at least 80%. In addition, the inhibition of growth at 20 ppm in the data set with Fusarium culmorum is at least 80%. In addition, in data set [2], the inhibition of growth at 20 ppm is at least 80%. The inhibition of growth at 20 ppm in [3] is at least 80%. Further, in data set [4], the inhibition of growth at 20 ppm was at least 80%.

The compound `Cc1cccc2c(C3=NC(C)(C)C(C)(C)c4c(F)cccc43)snc12` [Compound E-32, 3-(5-fluoro-3,3,4,4-tetramethyl-1-isoquinolyl)-7-methyl-2,1-benzothiazole] came in with a melting point of 96 to 98 °C. For the same compound, the inhibition of growth at 20 ppm with Fusarium culmorum was at least 80%. This compound also yielded an inhibition of growth at 20 ppm in the data set on Gaeumannomyces graminis of at least 80%. In addition, the inhibition of growth at 20 ppm in data set [2] is at least 80%. The compound further had an inhibition of growth at 20 ppm in data set [3] of at least 80%. Moreover, in the data set with Sclerotinia sclerotiorum, the inhibition of growth at 20 ppm was at least 80%. In data set [4], the inhibition of growth at 20 ppm is at least 80%. This compound also registered an inhibition of growth at 20 ppm in data set [5] of at least 80%.

Take `Cn1nc2c(Br)cccc2c1C1=NC(C)(C)C(C)(C)c2c(F)cccc21` [Compound E-8, 1-(7-bromo-2-methyl-indazol-3-yl)-5-fluoro-3,3,4,4-tetramethyl-isoquinoline]: the inhibition of growth at 20 ppm (in data set [1]; in [2]; in [3]; in the data set on Sclerotinia sclerotiorum; in data set [4]; in data set [5]) was at least 80% throughout.

In turn, `Cn1nc2ccccc2c1C1=NC(C)(C)C(C)(C)c2c(F)cccc21` [Compound E-1, 5-fluoro-3,3,4,4-tetramethyl-1-(2-methylindazol-3-yl)isoquinoline] displayed a melting point of 113 to 115 °C. Also, the inhibition of growth at 20 ppm in [1] is at least 80%. Further, in the data set on Fusarium culmorum, the inhibition of growth at 20 ppm is at least 80%. In the data set with Gaeumannomyces graminis, this compound returned an inhibition of growth at 20 ppm of at least 80%. Besides, the inhibition of growth at 20 ppm in data set [2] was at least 80%. In data set [3], this compound yielded an inhibition of growth at 20 ppm of at least 80%. The same compound gave an inhibition of growth at 20 ppm in the data set on Sclerotinia sclerotiorum of at least 80%. The same compound came in with an inhibition of growth at 20 ppm in data set [4] of at least 80%. The compound also showed an inhibition of growth at 20 ppm in [5] of at least 80%. For the same compound, in data set [6], the “control of Mycosphaerella arachidis” value was “at least 80%”.

As for `Cn1nc2c(Cl)c(Cl)ccc2c1C1=NC(C)(C)C(C)(C)c2c(F)cccc21` [Compound E-23, 1-(6,7-dichloro-2-methyl-indazol-3-yl)-5-fluoro-3,3,4,4-tetramethyl-isoquinoline], the inhibition of growth at 20 ppm (in data set [1]; in the data set on Gaeumannomyces graminis; in [2]; in [3]; with Sclerotinia sclerotiorum; in [4]) was at least 80% in each case. This compound also registered an inhibition of growth at 20 ppm in [5] of at least 80%.

`Cc1cccc2c(C3=NC(C)(C)C(C)(C)c4c(F)cccc43)n(C)nc12` [Compound E-9, 1-(2,7-dimethylindazol-3-yl)-5-fluoro-3,3,4,4-tetramethyl-isoquinoline]: the inhibition of growth at 20 ppm (in [1]; in the data set with Fusarium culmorum; with Gaeumannomyces graminis; in data set [2]; in data set [3]; with Sclerotinia sclerotiorum) was at least 80% throughout. Further, the inhibition of growth at 20 ppm in [4] and in [5] was at least 80% throughout.

As for `Cn1nc2c(Br)cccc2c1C1=NC(C)(C)C(F)(F)c2ccccc21` [Compound E-10, 1-(7-bromo-2-methyl-indazol-3-yl)-4,4-difluoro-3,3-dimethyl-isoquinoline], the melting point lay within 157 to 158 °C. In the data set on Gaeumannomyces graminis, this compound returned an inhibition of growth at 20 ppm of at least 80%. Besides, in data set [2], the inhibition of growth at 20 ppm is at least 80%. In [3], this compound registered an inhibition of growth at 20 ppm of at least 80%. The inhibition of growth at 20 ppm in the data set with Sclerotinia sclerotiorum was at least 80%. This compound displayed an inhibition of growth at 20 ppm in [4] of at least 80%. This compound also had an inhibition of growth at 20 ppm in data set [5] of at least 80%.
